Laboratory results: publication PMC5992482 (Molecular Therapy. Nucleic Acids, 2018)

Biological target: T1, Nicotinamide N-methyltransferase (NNMT) (Homo sapiens, UniProt P40261)
T1 sequence (P40261 1-264): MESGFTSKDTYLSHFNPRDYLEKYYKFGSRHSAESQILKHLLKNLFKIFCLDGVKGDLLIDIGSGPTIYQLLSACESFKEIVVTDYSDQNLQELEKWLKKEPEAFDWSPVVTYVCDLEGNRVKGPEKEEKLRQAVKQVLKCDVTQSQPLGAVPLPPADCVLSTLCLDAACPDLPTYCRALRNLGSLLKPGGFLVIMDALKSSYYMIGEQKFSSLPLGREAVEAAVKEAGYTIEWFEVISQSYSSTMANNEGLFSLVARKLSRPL
Test: in vitro enzyme activity assay with purified NNMT
Type: biochemical

C=C(C)[C@@]12O[C@@]3(/C=C/C=C/CCCCC)O[C@@H]1[C@@H]1[C@@H]4O[C@]4(CO)[C@@H](O)[C@]4(O)C(=O)C(C)=C[C@H]4[C@@]1(O3)[C@H](C)[C@H]2OC(C)=O [YD, yuanhuadine]
IC50: 0.4 µM
